# Source: patent US10857121B2, “Use of malononitrile compounds for protecting animals from parasites” (MERIAL INC., priority 2014, dated 2020)
# Legend:
# [1] = test system: Haematobia irritans; assay: In vivo efficacy against Haematobia irritans in cattle, topical pour-on; details: for % Efficacy vs. Haematobia irritans at 5 h: 5 h after infestation, Day 13
# [2] = test system: Haematobia irritans; assay: as above; details: for % Efficacy vs. Haematobia irritans at 5 h: 5 h after infestation; for % Efficacy vs. Haematobia irritans at 24 h: 24 h after infestation
# Protocol: A representative compound of the invention (II-35) was evaluated for efficacy against 20 Haematobia irritans in cattle when applied topically. Four treatment groups and one untreated control group containing four animals each were formed. Treatment Group 1 was an untreated control and Treatment Group 5 was a positive control group treated with a pour-on product containing 5% (w/v) cypermethrin (Cypermil Pour-on). The animals in Treatment Groups 2, 3 and 4 were treated with a pour-on composition containing compound (II-35) to deliver doses of 20 mg/kg, 10 mg/kg and 5 mg/kg body weight, respectively. The pour-on formulations comprised a mixture of 20% (w/v), 10% (w/v) and 5% (w/v) of the active dissolved in a carrier comprising 50% (v/v)N-methylpyrrolidone, 5% (v/v) dimethyl isosorbide and qs with Miglyol® 840. All animals were infested with approximately 200 Haematobia irritans flies on Days 1, 7, 14 and 21. As the source of flies was natural and the amount of flies decreased, the infestations On Days 28 and 35 animals were with approximately 100 horn flies due to a lack of flies. Additionally, Treatment Groups 3 and 5 were not infested on Day 35, due to the lack of flies. The flies were counted and recorded five hours following infestation and on the following day (at 24 h). The counts done on Day 2 were at 48 hours after treatment.
# The % efficacy (% reduction) of the each treatment group compared with the untreated control group is shown in Tables 2 and 3 below and in FIG. 1.
structure (smiles),measurement,setting,value
C#Cc1ccc(CC(C#N)(C#N)c2ccc(F)cc2)cc1 [II-35],% Efficacy vs. Haematobia irritans at 5 h,[1]; pour-on 10 mg/kg (Group 3),93.8%
same,efficacy vs. Haematobia irritans,"[1]; pour-on 10 mg/kg (Group 3), until Day 13, after 5 hours post infestation",above 93%
same,% Efficacy vs. Haematobia irritans at 5 h,[1]; pour-on 20 mg/kg (Group 2),97.7%
same,% Efficacy vs. Haematobia irritans at 5 h,"[2]; pour-on 5 mg/kg (Group 4), Day 1",99.5%
same,% Efficacy vs. Haematobia irritans at 5 h,"[2]; pour-on 5 mg/kg (Group 4), Day 7",98.3%
same,% Efficacy vs. Haematobia irritans at 5 h,"[2]; pour-on 5 mg/kg (Group 4), Day 13",93.2%
same,% Efficacy vs. Haematobia irritans at 5 h,"[2]; pour-on 5 mg/kg (Group 4), Day 21",80.0%
same,% Efficacy vs. Haematobia irritans at 5 h,"[2]; pour-on 5 mg/kg (Group 4), Day 28",64.1%
same,% Efficacy vs. Haematobia irritans at 5 h,"[2]; pour-on 5 mg/kg (Group 4), Day 35",51.5%
same,% Efficacy vs. Haematobia irritans at 24 h,"[2]; pour-on 5 mg/kg (Group 4), Day 2",100.0%
same,% Efficacy vs. Haematobia irritans at 24 h,"[2]; pour-on 5 mg/kg (Group 4), Day 8",99.7%
same,% Efficacy vs. Haematobia irritans at 24 h,"[2]; pour-on 5 mg/kg (Group 4), Day 14",100.0%
same,% Efficacy vs. Haematobia irritans at 24 h,"[2]; pour-on 5 mg/kg (Group 4), Day 22",93.5%
same,% Efficacy vs. Haematobia irritans at 24 h,"[2]; pour-on 5 mg/kg (Group 4), Day 29",95.5%
same,% Efficacy vs. Haematobia irritans at 24 h,"[2]; pour-on 5 mg/kg (Group 4), Day 36",88.1%
same,efficacy vs. Haematobia irritans,"[2]; pour-on 5 mg/kg (Group 4), until Day 13, after 5 hours post infestation",above 93%
same,efficacy vs. Haematobia irritans,"[2]; pour-on 5 mg/kg (Group 4), until Day 29, after 24 hours post infestation",above 93%
same,% Efficacy vs. Haematobia irritans at 5 h,"[2]; pour-on 10 mg/kg (Group 3), Day 1",98.9%
same,% Efficacy vs. Haematobia irritans at 5 h,"[2]; pour-on 10 mg/kg (Group 3), Day 7",98.2%
same,% Efficacy vs. Haematobia irritans at 5 h,"[2]; pour-on 10 mg/kg (Group 3), Day 21",68.3%
same,% Efficacy vs. Haematobia irritans at 5 h,"[2]; pour-on 10 mg/kg (Group 3), Day 28",65.6%
same,% Efficacy vs. Haematobia irritans at 24 h,"[2]; pour-on 10 mg/kg (Group 3), Day 2",100.0%
same,% Efficacy vs. Haematobia irritans at 24 h,"[2]; pour-on 10 mg/kg (Group 3), Day 8",100.0%
same,% Efficacy vs. Haematobia irritans at 24 h,"[2]; pour-on 10 mg/kg (Group 3), Day 14",100.0%
same,% Efficacy vs. Haematobia irritans at 24 h,"[2]; pour-on 10 mg/kg (Group 3), Day 22",93.1%
same,% Efficacy vs. Haematobia irritans at 24 h,"[2]; pour-on 10 mg/kg (Group 3), Day 29",69.2%
same,efficacy vs. Haematobia irritans,"[2]; pour-on 10 mg/kg (Group 3), until Day 22, after 24 hours post infestation",above 93%
same,% Efficacy vs. Haematobia irritans at 5 h,"[2]; pour-on 20 mg/kg (Group 2), Day 1",97.8%
same,% Efficacy vs. Haematobia irritans at 5 h,"[2]; pour-on 20 mg/kg (Group 2), Day 7",99.2%
same,% Efficacy vs. Haematobia irritans at 5 h,"[2]; pour-on 20 mg/kg (Group 2), Day 21",86.6%
same,% Efficacy vs. Haematobia irritans at 5 h,"[2]; pour-on 20 mg/kg (Group 2), Day 28",85.0%
same,% Efficacy vs. Haematobia irritans at 5 h,"[2]; pour-on 20 mg/kg (Group 2), Day 35",65.8%
same,% Efficacy vs. Haematobia irritans at 24 h,"[2]; pour-on 20 mg/kg (Group 2), Day 2",100.0%
same,% Efficacy vs. Haematobia irritans at 24 h,"[2]; pour-on 20 mg/kg (Group 2), Day 8",98.3%
same,% Efficacy vs. Haematobia irritans at 24 h,"[2]; pour-on 20 mg/kg (Group 2), Day 14",100.0%
same,% Efficacy vs. Haematobia irritans at 24 h,"[2]; pour-on 20 mg/kg (Group 2), Day 22",97.9%
same,% Efficacy vs. Haematobia irritans at 24 h,"[2]; pour-on 20 mg/kg (Group 2), Day 29",96.9%
same,% Efficacy vs. Haematobia irritans at 24 h,"[2]; pour-on 20 mg/kg (Group 2), Day 36",85.6%
same,efficacy vs. Haematobia irritans,"[2]; pour-on 20 mg/kg (Group 2), until Day 13, after 5 hours post infestation",above 93%
same,efficacy vs. Haematobia irritans,"[2]; pour-on 20 mg/kg (Group 2), until Day 29, after 24 hours post infestation",above 93%
